Source: patent publication US6071884A, “Pharmaceutical compositions and therapeutic methods” (Kirin Beer Kabushiki Kaisha, priority 1992, dated 2000)

Assays:
[1] = tested on: marrow cells (mononuclear cell fraction); assay: Proliferation-stimulating effect on marrow cell of mouse (3H-TdR uptake); assay type: cell-based, mouse (BALB/c); conditions: percentage of control, 72 h
Summary of the method: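 Mononuclear marrow cell fraction from 7-week-old female BALB/c mouse thigh bone, 1.5×10^6 cells/ml in 10% FCS RPMI 1640, cultured with test sample 72 h at 37° C. ³H-thymidine (0.5 μCi/well) then added for 8 h; nuclear ³H-TdR uptake counted by liquid scintillation.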

[2] = tested on: mononuclear cell fraction of human umbilical cord blood; assay: Proliferation-stimulating effect on mononuclear cell fraction of human umbilical cord blood (3H-TdR uptake); assay type: cell-based; conditions: 96 h, percentage of control, 4 days
Summary of the method: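 Umbilical cord blood MNF (Lymphoprep) cultured at 1×10^6 cells/ml in RPMI 1640 with 10% autologous plasma with sample for 4 days at 37° C, 5% CO2. 0.5 μCi/well 3H-TdR then added for 8 h, and nuclear uptake measured by liquid scintillation counting.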

[3] = Life-span-increasing effect on irradiation of a lethal dose of radiation; assay type: in vivo, mouse (BDF1); conditions: 10 mice/group, 9 Gy X-ray, 0.1 mg/kg i.v. days 0, 4, 8
Description: Pharmacological Test 4: Life-Span-Increasing Effect on Irradiation of a Lethal Dose of Radiation
An experiment was carried out by using 6 week old female BDF1 mice purchased from Japan SLC Co., Ltd., with 10 mice made one group.
The entire bodies of the entire body of the mice were irradiated with 9 Gy of X-rays by using a Hitachi X-ray irradiator (MBR-1520R), and the day on which the X-ray was irradiated was referred to as "day 0".

blood platelets [4] = assay: Thrombocytopenia-inhibiting effect in X-ray-irradiated mice; assay type: in vivo, mouse (BDF1); conditions: 10 days after 5 Gy X-ray; 0.1 mg/kg i.v. within 2 h; mean ± SD; vehicle per series 10.3, 6.8, 6.7; non-treatment 68.2, 96.9, 73.0
Summary of the method: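 Female BDF1 mice, 6 weeks old, six per group, given 5 Gy whole-body X-ray, then 0.1 mg/kg i.v. via tail vein within 2 hours. Platelets counted by hemocytometer in fundus-vein blood 10 days later; untreated and vehicle groups run alongside.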

blood platelets [5] = assay: Blood-platelet-increasing effect upon normal mouse; assay type: in vivo, mouse (BDF1); conditions: normal mice; 6 days after 0.1 mg/kg i.v.; mean ± SD; vehicle per series 58.2, 63.0, 71.1
Summary of the method: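 Female BDF1 mice, 6 weeks old (5 per group), received test sample at 0.1 mg/kg into the caudal vein. Six days later, fundus-vein blood was taken and platelets counted on a multi-channel hemocytometer, compared against vehicle-treated animals.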

[6] = Observation of body weight and general condition in monkey; assay type: in vivo, croo monkey; conditions: 1 mg/body i.v.; until 10 days after administration
Acute toxicity = assay type: in vivo; conditions: 7 days
Description: Test Example 2: Acute Toxicity
0.1, 1.0 or 10 mg/kg of Compound 5 or 33 was intravenously administered to Crj:CD rats (male, 5 weeks old), 6 rats in one group. 7 days after the administration, a toxicity test was carried out.

CCCCCCCCCCCCCCCCCCCCCCCCCC(=O)N[C@@H](CO[C@H]1O[C@H](CO)[C@H](O)[C@H](O)[C@H]1O)[C@H](O)[C@H](O)CCCCCCCCCCCCCC [Compound 33, (2S,3S,4R)-1-(α-D-galactopyranosyloxy)-2-hexacosanoylamino-3,4-octadecanediol]
activity at 0.1 µg/mL ([1]; 10^-1 μg/ml): 460%
activity at 0.01 µg/mL ([1]; 10^-2 μg/ml): 330%
activity at 0.001 µg/mL ([1]; 10^-3 μg/ml): 175%
activity at 0.1 µg/mL ([2]; 10^-1 μg/ml): 409%
activity at 0.01 µg/mL ([2]; 10^-2 μg/ml): 256%
activity at 0.001 µg/mL ([2]; 10^-3 μg/ml): 228%
Number of Surviving Mice ([3]; day 10, controls per series 10, 10, 10, 10, 10, 8): 10 mice
Number of Surviving Mice ([3]; day 15, controls per series 8, 9, 5, 5, 7, 1): 8 mice
Number of Surviving Mice ([3]; day 20, controls per series 4, 5, 1, 2, 3, 0): 7 mice
Number of Surviving Mice ([3]; day 25, controls per series 3, 3, 0, 0, 2, 0): 5 mice
Number of Surviving Mice ([3]; day 30, controls per series 1, 1, 0, 0, 0, 0): 5 mice
Number of Surviving Mice ([3]; day 35, all controls 0): 5 mice
Number of Surviving Mice ([3]; day 40, all controls 0): 5 mice
Number of Blood Platelets (blood platelets [4]): 23.9 ± 6.5 × 10^4 /μl
Number of Blood Platelets (blood platelets [5]): 142.3 ± 10.2 × 10^4 /μl
abnormality in body weight and in general condition [6]: no abnormality in body weight and in general condition was found
death of rats (Acute toxicity; 10 mg/kg i.v.): the rats did not die
post-mortem examination (Acute toxicity; i.v. 0.1, 1.0 or 10 mg/kg): no abnormality was found
LD50 at 168 h (Acute toxicity; rat, in vivo, iv, male rats): ≥ 10 mg/kg
